The record followed here is publication PMC8534003, “The Chemokine-Based Peptide, CXCL9(74-103), Inhibits Angiogenesis by Blocking Heparan Sulfate Proteoglycan-Mediated Signaling of Multiple Endothelial Growth Factors” (Cancers, 2021).

In test [1] the test system is human microvascular endothelial cells (HMVECs). Description: Endothelial cell proliferation assay (MTT or ATP lite). The test is classed as cell-based. The conditions noted are these: peptide 3 µM, 3 to 4 days, HMVECs, 1% FCS, mean ± SEM, n ≥ 4. The procedure:
The ability of the CXCL9-derived peptides to inhibit growth factor-induced proliferation of endothelial cells was assessed. HMVECs were seeded at 5 × 10^3 cells/well in EBM™-2 medium containing 1% (v/v) FCS (proliferation medium). After settling of the cells, they were stimulated with EGF, VEGF165 (both 5 ng/mL) or FGF-2 (3 ng/mL) as a single stimulus or in combination with CXCL9(86-103) or CXCL9(74-103) at 0.3 or 3 µM in proliferation medium or left untreated. HMVECs were also treated with 0.3 or 3 µM of CXCL9(74-103) or 3 µM of CXCL9(86-103) alone to assess the effect of CXCL9-derived peptide treatment on spontaneous proliferation. After 3 to 4 days, a 3-(4,5-dimethylthiazol-2-yl)-2,5-diphenyl tetrazolium bromide (MTT) or ATP lite assay was performed. The ATP lite assay was performed according to the manufacturer’s instructions (Perkin Elmer, Waltham, MA). When MTT was used as substrate, the medium was replaced with 200 µL of MTT solution (RPMI without phenol red containing 0.4 g/L MTT) and the cells were incubated at 37 °C and 5% CO2 in the dark for 4 hours. Then, the MTT solution was discarded and the formed formazan crystals were dissolved in 200 µL acidic propanol [0.04 M HCl, 0.1% (v/v) NP-40 in isopropanol] under continuous shaking in the dark for 10 min. The optical densities were measured at 570 nm and 630 nm (reference wavelength).

The test system is the same in test [2]. Description: xCELLigence adhesion assay. The test is classed as cell-based. As to conditions: VEGF165 50 ng/mL, peptide 3 µM, 1 h, gelatin coat; n = 2–6. As to the method: The wells of an E-plate (ACEA Biosciences, Inc.) were washed and coated with 0.1% (v/v) gelatin in phosphate-buffered saline (PBS) at 37 °C for 1 h. Following a washing step, wells were incubated with 0.1% (v/v) bovine serum albumin (BSA) in PBS at 37 °C for 1 h. After washing, 50 µL basal MCDB131 medium was added and the plate was allowed to equilibrate at 37 °C. HMVECs were harvested and seeded at 4 × 10^4 cells/well together with 50 ng/mL VEGF165 with or without 0.03, 0.3 or 3 µM of CXCL9(74-103) or 3 µM of CXCL9(86-103) in 100 µL control medium (vide supra). Real-time changes in electrical impedance depicted as cell indices, as measure for cell adhesion and spreading, were analyzed using the xCELLigence® RTCA DP System. The adhesion of HMVECs was analyzed 1 h after seeding.

Test [3] concerns heparan sulfate (HS) / VEGF165. Description: ELISA-like GAG binding assay, competition with VEGF165 for HS binding. Set-up: species or system human. The conditions noted are these: HS 25 µg/mL, pH 7.2, 37 °C, 2 h, n = 5. The procedure: The ability of the CXCL9-derived peptides to compete with VEGF165 for HS binding was assessed in an ELISA-like GAG binding assay. First, the GAG binding plates (Galen Laboratory Supplies, North Haven, CT, USA) were coated with 25 µg/mL HS (Iduron, Alderley Edge, UK) in standard assay buffer (SAB) [100 mM NaCl, 50 mM sodium acetate, 0.2% (v/v) Tween® 20 in ultrapure water, pH 7.2] at room temperature overnight. The plates were washed with SAB and blocked with blocking buffer [SAB supplemented with 0.2% (w/v) gelatin] at 37 °C for 1 h to prevent nonspecific binding. Then, dilutions of VEGF165 and the peptides, CXCL9(74-103) or CXCL9(86-103), were added and allowed to interact at 37 °C for 2 h. Unbound material was removed through washing and biotinylated polyclonal goat anti-human VEGF165 antibody (PeproTech) in blocking buffer was added to interact with HS-bound VEGF165 at 37 °C for 1 h. Following additional washing steps, detection was performed with streptavidin-horseradish peroxidase (HRP) (R&D Systems) in blocking buffer at 37 °C for 30 min and conversion of 3,3’,5,5’-tetramethylbenzidine (TMB) to a colorimetric signal in the presence of 0.015% (v/v) H2O2. The reaction was stopped by the addition of H2SO4 and the absorbance was measured at 450 nm. All incubation steps were performed in the dark.

The subject of test [4] is MDA-MB-231 breast cancer xenograft. Description: In vivo MDA-MB-231 breast cancer mouse model. As to conditions: 800 µg s.c. osmotic pump; text says data not shown. On the set-up: species or system human tumor cells in SCID mice. As to the method:
Six-to-eight-week-old female SCID mice were s.c. injected with 6 × 10^6 MDA-MB-231 breast tumor cells (American Type Culture Collection, Manassas, VA) in 200 µL PBS. Three days later, mice were anesthetized as described (vide supra), a dorsal incision was made and an ALZET osmotic pump (model 1002, DURECT Corporation) containing 800 µg/100 µL CXCL9(74-103) or CXCL9(86-103) or 100 µL PBS was s.c. implanted, which delivered a continuous dose over the course of two weeks. Three weeks after tumor cell injection, mice were sacrificed. Tumors were isolated, minced and added to 2 mL of tumor cell medium [TCM; 5% (v/v) FCS in RPMI 1640 + Glutamax (Gibco)]. After centrifugation (500 g, room temperature, 5 min), minced tumors were incubated at 37 °C for 30 min in 3 mL of digestion medium [2 mg/mL collagenase D, 0.1 mg/mL DNAse and 5 U/mL dispase (Corning Life Sciences) in TCM]. Subsequently, tumor fragments were further disrupted using a 1 mL syringe and 18G needle, and 2 mL of digestion medium was added for an additional incubation at 37 °C for 15 min. […] After centrifugation (500 g, 4 °C, 5 min), the pellet was resuspended in 500 µL of 2% (v/v) FCS in PBS and the cells were counted. To assess the anti-angiogenic potential of the CXCL9-derived peptides, the population of endothelial cells within the tumor samples was determined via flow cytometry (vide supra).

For the sequence KKVLKVRKSQRSRQKKTT [CXCL9(86-103)], the EGF-induced proliferation entry in test [1] (EGF 5 ng/mL) is “could not significantly alter”. Also, in test [1] (FGF-2 3 ng/mL), the FGF-2-induced proliferation entry was “significantly attenuated”. In test [1] (VEGF165 5 ng/mL), the VEGF165-induced proliferation entry is “could not significantly alter”. In test [2], the “VEGF165-induced endothelial cell adhesion” value is listed as “No effect on VEGF-induced adhesion”. The entries for the “inhibition of VEGF165 binding to HS” value in test [3] (30-fold molar excess of peptide over VEGF165) and in test [3] (300-fold molar excess of peptide over VEGF165) were “≈ 20%” and 40%, respectively. Also, the tumor-associated angiogenesis entry in test [4] is “no anti-angiogenic activity”.
